The values below come from PubChem BioAssay (NCI).

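Each compound was tested at five concentrations against cells in 96-well plates for 48 hours. Here, GI50 denotes the concentration required for 50% inhibition of growth. TGI: total growth inhibition.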 A value given as a limit tells only on which side of the number the result lay.

Among the test systems are KM12 colon; T-47D breast; NCI-H460 lung; CCRF-CEM leukemia; M14 melanoma; BT-549 breast; NCI-H522 lung; MOLT-4 leukemia; HT29 colon; PC-3 prostate.
Common to all, as to test: DTP human tumour cell line panel, 48 h

As to `CCOC(=O)c1cc2cc3c4c(c2oc1=O)CCCN4CCC3`, the TGI (commonly the concentration giving total growth inhibition) in the test on KM12 colon is 61.9 µM; in the test with T-47D breast it was 53.6 µM; in the test with NCI-H460 lung, over 100 µM; in the test on CCRF-CEM leukemia, over 100 µM; with M14 melanoma, over 100 µM; in the test on BT-549 breast, over 100 µM. Further, the TGI is 45.6 µM with NCI-H522 lung, 62.9 µM with MOLT-4 leukemia, over 100 µM with HT29 colon and 97.5 µM in the test with PC-3 prostate.
As for `COc1cc(C2SCCCCCCCCCCSC(c3ccc(O)c(OC)c3)SCCCCCCCCCCS2)ccc1O` (stereo not drawn), the total growth inhibition concentration (TGI) in the test with KM12 colon, with T-47D breast, in the test on M14 melanoma, in the test with BT-549 breast, in the test on NCI-H522 lung and in the test on MOLT-4 leukemia was over 100 µM each time. The TGI in the test with HT29 colon and in the test on PC-3 prostate was over 100 µM each time.
On to `O=C1CC2C(=O)c3ccccc3CC2c2ccccc21` (stereo not drawn), for which the TGI is over 100 µM in the test with KM12 colon; 87.7 µM in the test on T-47D breast; over 100 µM in the test with NCI-H460 lung; over 100 µM in the test on M14 melanoma; over 100 µM in the test on BT-549 breast; over 100 µM in the test on NCI-H522 lung. Moreover, the values for the TGI in the test with MOLT-4 leukemia, in the test on HT29 colon and with PC-3 prostate were 69.3 µM, over 100 µM and over 100 µM, respectively.
Regarding `CCCCCCCCOC(=O)CC[C@@H](C)[C@H]1CC[C@H]2[C@@H]3[C@H](OC(=O)CCN)C[C@@H]4C[C@H](OC(=O)CCN)CC[C@]4(C)[C@H]3C[C@H](OC(=O)CCN)[C@]12C`, the GI50 (as a rule, the concentration at which growth is held to half of that of the control) in the test on KM12 colon was 3.04 µM; with T-47D breast it was 12.3 µM; in the test with NCI-H460 lung it was 3.18 µM; in the test on M14 melanoma it was 4.61 µM; in the test on BT-549 breast, 20.4 µM; in the test on NCI-H522 lung it was 2.26 µM. Moreover, the GI50 was 2.44 µM with HT29 colon and 7.17 µM in the test on PC-3 prostate. The total growth inhibition concentration (TGI) in the test with KM12 colon came to 7.51 µM; with T-47D breast, 39.9 µM; in the test with NCI-H460 lung, 10.6 µM; in the test with M14 melanoma it was 22.9 µM; in the test with BT-549 breast, 46.9 µM; in the test with NCI-H522 lung, 4.42 µM. The TGI was found to be 5.79 µM with HT29 colon and 22.4 µM in the test on PC-3 prostate.
With `Nc1nonc1-c1nc2cnccc2n1C1CC1`, the GI50 in the test on KM12 colon is 6.46 µM; in the test on T-47D breast it was 5.7 µM; with NCI-H460 lung it was 6.83 µM; with CCRF-CEM leukemia, 7.99 µM; in the test on M14 melanoma, 14.1 µM; in the test with BT-549 breast, 3.85 µM. Moreover, the GI50 is 3.43 µM in the test with NCI-H522 lung, 12.1 µM with MOLT-4 leukemia, 5.87 µM in the test on HT29 colon and 17.7 µM with PC-3 prostate. Also, the TGI in the test on KM12 colon is over 20.9 µM; with T-47D breast, over 22.3 µM; in the test with NCI-H460 lung, over 25 µM; with CCRF-CEM leukemia, over 25 µM; in the test with M14 melanoma it was over 25 µM; in the test on BT-549 breast, 19.2 µM. The total growth inhibition concentration (TGI) is 13.2 µM in the test on NCI-H522 lung, over 25 µM in the test on MOLT-4 leukemia, over 25 µM in the test with HT29 colon and over 25 µM in the test on PC-3 prostate.
For the molecule `COC(=O)c1cc2c3ccccc3n3c(=O)c4cc5ccc(N(S(=O)(=O)c6ccc(C)cc6)S(=O)(=O)c6ccc(C)cc6)cc5nc4c(n1)c23`, the GI50 in the test with KM12 colon was over 100 µM; in the test on T-47D breast, over 100 µM; with NCI-H460 lung, over 100 µM; in the test with CCRF-CEM leukemia, 19.2 µM; in the test with M14 melanoma it was 54.4 µM; in the test on BT-549 breast, 35.7 µM. Moreover, the GI50 in the test with NCI-H522 lung was 83.7 µM; in the test on MOLT-4 leukemia, 28.6 µM; in the test with HT29 colon it was over 100 µM; in the test on PC-3 prostate, over 100 µM. Further, the TGI in the test with KM12 colon is over 100 µM; with T-47D breast, over 100 µM; in the test with NCI-H460 lung it was over 100 µM; with CCRF-CEM leukemia, 44.9 µM; in the test on M14 melanoma it was over 100 µM; with BT-549 breast, over 100 µM. Moreover, the total growth inhibition concentration (TGI) in the test on NCI-H522 lung was over 100 µM; with MOLT-4 leukemia it was 64.5 µM; in the test on HT29 colon, over 100 µM; with PC-3 prostate, over 100 µM.
Consider `O=C1/C(=C/c2cccc(Br)c2)COc2ccc(O)cc21`, for which the GI50 in the test on KM12 colon was 1.75 µM; with T-47D breast, 2.18 µM; in the test with NCI-H460 lung, 3.69 µM; with CCRF-CEM leukemia, 0.285 µM; with M14 melanoma, 3.42 µM; in the test on BT-549 breast, 3.01 µM. Also, the GI50 in the test with NCI-H522 lung was 1.46 µM; in the test with MOLT-4 leukemia it was 2.46 µM; in the test with HT29 colon, 2.43 µM; with PC-3 prostate, 2.04 µM. The TGI in the test on KM12 colon is 3.74 µM; in the test on T-47D breast it was 6.28 µM; in the test on NCI-H460 lung, 13.2 µM; with CCRF-CEM leukemia, 1.88 µM; with M14 melanoma, 12.3 µM; in the test on BT-549 breast it was 12.7 µM. Further, the total growth inhibition concentration (TGI) in the test with NCI-H522 lung turned out to be 3.11 µM; in the test on MOLT-4 leukemia, 10.9 µM; with HT29 colon, 10.2 µM; with PC-3 prostate, 5.57 µM.
As for `CCOC(=O)Nc1nc2ccc(OC)cc2s1`, the GI50 in the test on KM12 colon, in the test with T-47D breast, in the test on NCI-H460 lung, with CCRF-CEM leukemia, in the test with M14 melanoma and in the test on BT-549 breast was over 100 µM each time. The GI50 in the test with NCI-H522 lung, in the test on MOLT-4 leukemia, in the test on HT29 colon and with PC-3 prostate was over 100 µM in each case. Further, the TGI in the test on KM12 colon, with T-47D breast, in the test on NCI-H460 lung, in the test with CCRF-CEM leukemia, in the test with M14 melanoma and in the test on BT-549 breast was over 100 µM each time. Moreover, the concentration for total growth inhibition (TGI) with NCI-H522 lung, in the test with MOLT-4 leukemia, in the test with HT29 colon and in the test with PC-3 prostate was over 100 µM throughout.
`FC(F)(c1ccc2ncccc2c1)c1nnc2ccc(-c3ccncc3)nn12`: the GI50 with KM12 colon is 69.7 µM; in the test on T-47D breast, 61.9 µM; with NCI-H460 lung, over 100 µM; in the test on CCRF-CEM leukemia it was over 100 µM; in the test with M14 melanoma, over 100 µM; in the test with BT-549 breast, 53.7 µM. Moreover, the GI50 is over 100 µM in the test on NCI-H522 lung, 38.4 µM with MOLT-4 leukemia, over 100 µM in the test on HT29 colon and 74.6 µM in the test on PC-3 prostate. In addition, the TGI in the test on KM12 colon, in the test with T-47D breast, in the test with NCI-H460 lung, in the test on CCRF-CEM leukemia, with M14 melanoma and in the test with BT-549 breast was over 100 µM each time. Besides, the concentration for total growth inhibition (TGI) in the test with NCI-H522 lung, with MOLT-4 leukemia, in the test on HT29 colon and with PC-3 prostate was over 100 µM throughout.
